# Experimental data reported in US10918626B2, “Method for improving pharmacokinetics” (Roche Palo Alto LLC, priority 2009, dated 2021).
# Read-outs that look alike come from different tables or passages of the source.
# Assays:
# HCV = settings: monotherapy; cited from earlier work
# NS3/4A protease = target: T1, NS3/4A protease (Hepatitis C virus genotype 1a, UniProt P27958); test: NS3/4A proteolysis inhibition; format: biochemical; settings: read-out: 50% inhibitory concentration (IC50), NS3/4A proteolysis
# T1 construct: a serine protease encoded in the NS3 region
# T1 sequence (P27958 1658-1711): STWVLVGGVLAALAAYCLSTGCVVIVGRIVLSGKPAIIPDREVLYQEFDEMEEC
# T1 sequence (P27958 1027-1657): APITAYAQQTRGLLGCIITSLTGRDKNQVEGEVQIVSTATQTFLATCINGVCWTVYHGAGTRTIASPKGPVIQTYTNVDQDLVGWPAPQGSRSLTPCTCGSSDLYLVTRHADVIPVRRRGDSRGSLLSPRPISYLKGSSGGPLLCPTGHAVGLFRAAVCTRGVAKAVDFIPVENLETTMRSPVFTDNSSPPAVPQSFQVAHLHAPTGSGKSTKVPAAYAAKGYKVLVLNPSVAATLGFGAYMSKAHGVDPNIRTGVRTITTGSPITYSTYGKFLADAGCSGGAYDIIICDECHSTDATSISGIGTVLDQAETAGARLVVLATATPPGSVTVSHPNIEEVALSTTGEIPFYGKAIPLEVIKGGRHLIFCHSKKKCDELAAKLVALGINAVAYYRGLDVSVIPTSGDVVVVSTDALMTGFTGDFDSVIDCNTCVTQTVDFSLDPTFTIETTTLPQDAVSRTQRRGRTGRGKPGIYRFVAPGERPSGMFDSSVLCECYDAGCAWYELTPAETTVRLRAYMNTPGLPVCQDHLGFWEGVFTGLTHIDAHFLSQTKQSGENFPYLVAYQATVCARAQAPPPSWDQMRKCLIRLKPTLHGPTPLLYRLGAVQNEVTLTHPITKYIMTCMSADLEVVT
# recombinant CYPs = recombinant CYPs (Homo sapiens, UniProt P08684); test: metabolism by recombinant CYPs; format: in vitro ADME
# Chain of recombinant CYPs (P08684 whole entry): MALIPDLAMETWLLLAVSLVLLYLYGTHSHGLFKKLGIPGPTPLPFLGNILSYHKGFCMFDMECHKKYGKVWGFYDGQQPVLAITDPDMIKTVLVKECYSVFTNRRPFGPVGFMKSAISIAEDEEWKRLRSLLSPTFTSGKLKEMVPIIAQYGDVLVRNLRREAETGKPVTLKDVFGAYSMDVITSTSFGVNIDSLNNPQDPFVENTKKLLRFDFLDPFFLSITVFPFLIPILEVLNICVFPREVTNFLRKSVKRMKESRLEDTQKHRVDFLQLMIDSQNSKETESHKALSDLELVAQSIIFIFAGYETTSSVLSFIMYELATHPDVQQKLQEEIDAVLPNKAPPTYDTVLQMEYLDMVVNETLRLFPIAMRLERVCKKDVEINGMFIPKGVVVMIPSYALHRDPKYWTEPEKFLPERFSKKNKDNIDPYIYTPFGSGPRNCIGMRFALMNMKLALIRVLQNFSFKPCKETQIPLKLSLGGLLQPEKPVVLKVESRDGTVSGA
# Description: (§1) Therefore, a cytochrome P450 monooxygenase inhibitor in an amount effective to inhibit metabolism of the protease inhibitor could increase the bioavailability of R7227 compared to administration in the absence of the CYP inhibitor.
# [1] = Pharmacokinetic enhancement of R7227 by ritonavir in healthy adults; format: in vivo, human; settings: for concentration at 12 h / Cmax / AUC(0-inf): human, plasma; for concentration at 12 h: read-out: C12 h, GLSM; for Cmax / AUC(0-inf): N 12
# Experimental: Subjects were screened for participation in this study within 21 days before dosing. The study enrolled 14 healthy volunteers (n=14 per group). The dosing schedule is illustrated below: [table] […] was formulated into clear size 10 oval soft gelatin capsules for oral administration at a strength of 100 mg per capsule (anhydrous free acid equivalent). The capsule fill solution consists of […]-001, polyethylene glycol PEG400 (Macrogol 400), and butylated hydroxytoluene (BHT). All excipients are compendial grade (NF or EP). Gelatin Type 195 (NF, EP) is used as the bulk gel mass for the capsule shell, with small amounts of sorbitol liquid 85/70/00 (NF, EP) and water (USP) used as plasticizers. All study medications were with a meal. […] was administered orally as a single dose of a 100 mg soft gel capsule on days 1, 3 and 12. […] Blood samples (5 mL) were collected to determine plasma concentrations of […] (and metabolites when assays were available) according to the following schedule Day 1, PK samples (5 mL) were be collected before […] dosing (predose) and at 0.5, 1, 1.5, 2, 2.5, 3, 3.5, 4, 6, 8, 12, and 24 hours after […] dosing; Days 3 and 12, PK samples (5 mL) were collected before […] dosing (predose) and at 0.5, 1, 1.5, 2, 2.5, 3, 3.5, 4, 6, 8, 12, 24, 36, and 48 hours after […] dosing. Primary PK parameters of […] that were determined are Cmax and AUC0→∞. Secondary PK parameters of […] that were measured include Tmax and AUC0→last, CL/F, t1/2, C12 hr and C24 h. Analysis of variance (ANOVA) was applied to the log-transformed primary pharmacokinetic parameters. Two-sided 90% confidence intervals for the ratios of the geometric means of the primary parameters (AUC0→∞ and Cmax of […]) were derived for the following comparisons: […] Analysis of variance (ANOVA) was used to analyze all primary study parameters using the following model: Yij=μ+τi+sj+εij where Yij denotes the PK parameter to be analyzed, μ denotes the general mean of the transformed variable, τi, the fixed effect of treatment; sj the random effect of subject; εij (error). The random deviations εij are assumed to be independent and normally distributed with zero mean and common variance σ^2. The group comparisons τ […]+Ritonavir-τ[…], the residual variance σ^2, and the 90% confidence limits for the group comparisons were estimated from the ANOVA model. For log-transformed variables (AUC0→∞ and Cmax), the ratio of true group means and the confidence limits for the corresponding ratio of means of the untransformed variables will be calculated by exponentiation of the least squares means differences and the confidence limits for the transformed values, respectively.
# CYP isozymes = test: cytochrome P450 phenotyping using chemical inhibitors; format: in vitro ADME
# Description: as §1
# [2] = SAD study in healthy volunteers; format: in vivo, human
# Description: (A. A. Mathias et al., Clin. Pharmacol. Ther. 2009 85(1)64-70).
# genotype 1 HCV replicon = test: cell-based potency assay employing a genotype 1 HCV replicon; settings: Hepatitis C virus
# [3] = po, 100 mg, Day 1 (alone), R7227 100 mg single oral dose
# [4] = multiple doses of ritonavir 100 mg every 12 hours
smiles,measurement,setting,value
"NC(=O)c1ncn([C@@H]2O[C@H](CO)[C@@H](O)[C@H]2O)n1 [ribavirin, 1-((2R,3R,4S,5R)-3,4-dihydroxy-5-hydroxymethyl-tetrahydro-furan-2-yl)-1H-[1,2,4]triazole-3-carboxylic acid amide]",patients with serum amino transferase levels reduced to normal,HCV,40%
CC(C)(C)OC(=O)N[C@H]1CCCCC/C=C\[C@@H]2C[C@@]2(C(=O)NS(=O)(=O)C2CC2)NC(=O)[C@@H]2C[C@@H](OC(=O)N3Cc4cccc(F)c4C3)CN2C1=O [R7227],IC50,NS3/4A protease,≤ 0.225 nM
same,metabolism by recombinant CYPs,recombinant CYPs,only CYP3A4 metabolized R7227 to an extent that could influence the pharmacokinetics
same,"AUC0→∞, ratio of GLSM (90% CI)",[1]; Day 3 vs Day 1,"5.70 (4.07, 7.99)"
same,"Cmax, ratio of GLSM (90% CI)",[1]; Day 3 vs Day 1,"3.14 (1.87, 5.25)"
same,"C12 h, ratio of GLSM (90% CI)","[1]; Day 3 vs Day 1, N 8, non-missing non-BLQ data","50.6 (25.6, 100)"
same,"C12 h, ratio of GLSM (90% CI)","[1]; Day 3 vs Day 1, N 12, includes extrapolated day 1 values","65.2 (34.8, 122)"
same,"AUC0→∞, ratio of GLSM (90% CI)",[1]; Day 12 vs Day 1,"5.50 (4.05, 7.48)"
same,"Cmax, ratio of GLSM (90% CI)",[1]; Day 12 vs Day 1,"3.25 (2.12, 4.96)"
same,"C12 h, ratio of GLSM (90% CI)","[1]; Day 12 vs Day 1, N 8, non-missing non-BLQ data","26.9 (17.7, 41.0)"
same,"C12 h, ratio of GLSM (90% CI)","[1]; Day 12 vs Day 1, N 12, includes extrapolated day 1 values","42.4 (25.7, 70.0)"
same,concentration at 12 h,"[1]; oral, 100 mg, Day 1 (alone), N 8, non-missing non-BLQ data from all three treatment days",0.02 ng/mL
same,concentration at 12 h,"[1]; oral, 100 mg, Day 1 (alone), N 12, includes extrapolated C12 h values from 4 subjects with BLQ values on day 1",0.01 ng/mL
same,concentration at 12 h,"[1]; oral, Day 3 (with ritonavir single dose), N 8, non-missing non-BLQ data",1 ng/mL
same,Cmax,"[1]; oral, Day 3 (with ritonavir single dose)",26.4 ng/mL
same,concentration at 12 h,"[1]; oral, Day 3 (with ritonavir single dose), N 12 (set including extrapolated day 1 values)",0.55 ng/mL
same,concentration at 12 h,"[1]; oral, Day 12 (with ritonavir multiple dose), N 8, non-missing non-BLQ data",0.53 ng/mL
same,Cmax,"[1]; oral, Day 12 (with ritonavir multiple dose)",27.3 ng/mL
same,concentration at 12 h,"[1]; oral, Day 12 (with ritonavir multiple dose), N 12 (set including extrapolated day 1 values)",0.36 ng/mL
same,AUC(0-inf),[1]; [3],0.0144 µg·h/mL
same,Cmax,[1]; [3],8.4 ng/mL
same,AUC(0-inf),"[1]; po, 100 mg, Day 3 (with ritonavir single dose), R7227 100 mg oral",0.082 µg·h/mL
same,AUC(0-inf),"[1]; po, 100 mg, Day 12 (with ritonavir multiple dose), R7227 100 mg oral",0.0794 µg·h/mL
same,increase of R7227 AUC0→∞,[1]; [4],approximately 5.5 fold
same,increase of R7227 Cmax,[1]; [4],~3.25 fold
same,CYP isozymes participating in metabolism,CYP isozymes,"multiple CYP isozymes including 3A4, 2C19, 1A2, 2D6, and 2C9 participate in the metabolism"
same,highest safe and tolerable dose,[2],1600 mg
same,IC50,genotype 1 HCV replicon,1.77 nM
